Data as given in patent EP1268431B1 (Wyeth, priority 2000, dated 2001).
Several values for one entry are separate records, joined by “and”; a condition that tells them apart may be missing. Identical values can stand only once. Like-named read-outs stand apart in the source and are kept apart here.

Experiments:
[1] = test system: Rat2 fibroblasts stably transformed with a plasmid containing a CMV promotor controlled v-Src/Hu c-Src fusion gene; assay: Anchorage Independent Src-transformed Fibroblast Proliferation Assay
c-Src = target: T1, c-Src (Homo sapiens, UniProt P12931); assay: c-Src Kinase Assay (ELISA format); type: biochemical
T1 construct: purchased Upstate Biotechnologies
Outline: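 Partially purified Src preincubated with compound and biotinylated peptide 10 min at 30 °C in Tris-HCl pH 7.5 with MgCl2, EGTA, vanadate; ATP-started reaction ran 1 h at 30 °C, EDTA-stopped. Phosphopeptide captured on streptavidin, detected by HRP anti-phosphotyrosine; % inhibition = (1 − Abs/Abs(max)) × 100.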

[2] = Rattus norvegicus, Rat2, 120 h, read-out: anch-indep src-tx fib IC50, suspension growth, MTS on Day 5
[3] = read-out: anch-indep src-tx fib IC50, suspension growth, MTS on Day 5

CCN1CCN(CCc2ccc(-c3ccc4c(Nc5cc(OC)c(Cl)cc5Cl)c(C#N)cnc4c3)cc2)CC1 [Example 32, 4-(2,4-Dichloro-5-methoxyanilino)-7-{4-[2-(4-ethyl-1-piperazinyl)ethyl]phenyl}-3-quinolinecarbonitrile]
IC50 [1, 2]: 2000 nM | IC50 [1, 3]: 1900 nM | IC50 (c-Src): 2.7 nM

COc1ccc(Cl)c(Nc2c(C#N)cnc3cc(-c4ccc(CN5CCOCC5)cc4)ccc23)c1 [Example 236, 4-(2-chloro-5-methoxyanilino)-7-[4-(4-morpholinylmethyl)phenyl]-3-quinolinecarbonitrile]
IC50 [1, 2]: 570 nM | IC50 (c-Src): 3 nM

COc1cc(Nc2c(C#N)cnc3cc(-c4ccc(CN(C)C)cc4)ccc23)c(Cl)cc1Cl [Example 86, 4-(2,4-Dichloro-5-methoxyanilino)-7-{4-[(dimethylamino)methyl]phenyl}-3-quinolinecarbonitrile]
IC50 [1, 2]: 210 nM | IC50 (c-Src): 1.1 nM

COc1cc(Nc2c(C#N)cnc3cc(-c4ccc(CN5CCOCC5)o4)ccc23)c(Cl)cc1Cl [Example 53, 4-(2.4-Dichloro-5-methoxyanilino)-7-[5-(4-morpholinylmethyl)-2-furyl]-3-quinolinecarbonitrile]
IC50 [1, 2]: 250 nM | IC50 (c-Src): 2.9 nM

COc1cc(Nc2c(C#N)cnc3cc(-c4ccc(CN5CCOCC5)cc4)ccc23)c(Cl)cc1Cl [Example 29, 4-(2,4-Dichloro-5-methoxyanilino)-7-[4-(4-morpholinylmethyl)phenyl]-3-quinolinecarbonitrile]
IC50 [1, 2]: 540 nM | IC50 [1, 3]: 500 nM | IC50 (c-Src): 4.1 nM and 2.5 nM

4-(2,4-Dichloro-5-methoxyanilino)-7-{5-[(4-hydroxy-1-piperidinyl)methyl]-2-thienyl}-3-quinolinecarbonitrile [Example 89]
IC50 [1, 3]: 90 nM | IC50 (c-Src): 0.52 nM and 0.84 nM

COc1cc(Nc2c(C#N)cnc3cc(-c4ccccc4CN4CCOCC4)ccc23)c(Cl)cc1Cl [Example 115, 4-(2,4-Dichloro-5-methoxyanilino)-7-[2-(4-morpholinylmethyl)phenyl]-3-quinolinecarbonitrile]
IC50 [1, 2]: > 10000 nM | IC50 (c-Src): 5000 nM

CCOC(=O)C1CCCN(Cc2ccc(-c3ccc4c(Nc5cc(OC)c(Cl)cc5Cl)c(C#N)cnc4c3)cc2)C1 (centres unmarked) [Example 148, ethyl 1-(4-{3-cyano-4-[(2,4-dichloro-5-methoxyphenyl)amino]-7-quinolinyl}benzyl)-3-piperidinecarboxylate]
IC50 [1, 2]: 2100 nM | IC50 (c-Src): 8.6 nM

COc1cc(Nc2c(C#N)cnc3cc(-c4ccc(CNCCc5ccccn5)cc4)ccc23)c(Cl)cc1Cl [Example 229, 4-(2,4-dichloro-5-methoxyanilino)-7-[4-({[2-(2-pyridinyl)ethyl]amino}methyl)phenyl]-3-quinolinecarbonitrile]
IC50 [1, 2]: 450 nM | IC50 (c-Src): 2.3 nM

COC(=O)C1CCN(Cc2ccc(-c3ccc4c(Nc5cc(OC)c(Cl)cc5Cl)c(C#N)cnc4c3)cc2)CC1 [Example 231, methyl 1-{4-[3-cyano-4-(2,4-dichloro-5-methoxy-anilino)-7-quinolinyl]benzyl}-4-piperidinecarboxylate]
IC50 [1, 2]: 390 nM | IC50 (c-Src): 6.8 nM

COc1cc(Nc2c(C#N)cnc3cc(-c4ccc(CN5CCS(=O)(=O)CC5)cc4)ccc23)c(Cl)cc1Cl [Example 150, 4-[(2,4-dichloro-5-methoxyphenyl)amino]-7-{4-[(1,1-dioxido-4-thiomorpholinyl)methyl]phenyl}-3-quinolinecarbonitrile]
IC50 [1, 2]: 500 nM | IC50 [1, 3]: 520 nM | IC50 (c-Src): 13 nM and 6.6 nM

COc1cc(Nc2c(C#N)cnc3cc(-c4csc(CN5CCOCC5)c4)ccc23)c(Cl)cc1C [Example 80, 4-{2-Chloro-5-methoxy-4-methylanilino)-7-[5-(4-morpholinylmethyl)-3-thienyl]-3-quinolinecarbonitrile]
IC50 [1, 2]: 80 nM | IC50 (c-Src): 1.5 nM

COc1ccc(C#Cc2ccc3c(Nc4cc(OC)c(Cl)cc4Cl)c(C#N)cnc3c2)cc1 [Example 90, 4-(2,4-Dichloro-5-methoxyanilino)-7-[2-(4-methoxyphenyl)ethynyl]-3-quinolinecarbonitrile]
IC50 [1, 2]: > 10000 nM | inhibition at 0.1 µM (c-Src; at 100 nM): 10%

COC(=O)C1CCN(Cc2ccc(-c3ccc4c(Nc5cc(OC)c(Cl)cc5Cl)c(C#N)cnc4c3)nc2)CC1 [Example 176, 1-{6-[3-cyano-4-(2,4-dichloro-5-methoxyphenylamino)-quinolin-7-yl]-pyridin-3-ylmethyl}piperidine-4-carboxylic acid methyl ester]
IC50 [1, 2]: 90 nM | IC50 (c-Src): 1.7 nM

N#Cc1cnc2cc(C=CCCCCN3CCOCC3)ccc2c1Nc1ccc(Cl)cc1Cl (mixture of isomers) [Example 16, 4-(2,4-Dichloroanilino)-7-[(E/Z)-6-(4-morpholinyl)-1-hexenyl]-3-quinolinecarbonitrile]
IC50 [1, 2]: > 10000 nM | IC50 (c-Src): 44 nM

COc1cc(Nc2c(C#N)cnc3cc(-c4ccc(CN5CCOCC5)s4)ccc23)c(Cl)cc1Cl [Example 23, 4-(2,4-Dichloro-5-methoxyanilino)-7-[5-(4-morpholinylmethyl)-2-thienyl]-3-quinolinecarbonitrile]
IC50 [1, 2]: 90 nM | IC50 (c-Src): 2 nM

COc1cc(Nc2c(C#N)cnc3cc(-c4ccc(C=O)o4)ccc23)c(Cl)cc1Cl [Example 6, 4-(2,4-Dichloro-5-methoxyanilino)-7-(5-formyl-2-furyl)-3-quinolinecarbonitrile]
IC50 [1, 2]: 1600 nM | IC50 (c-Src): 4 nM

COc1cc(Nc2c(C#N)cnc3cc(-c4cccc(CCN5CCOCC5)c4)ccc23)c(Cl)cc1Cl [Example 28, 4-(2,4-Dichloro-5-methoxyanilino)-7-{3-[2-(4-morpholinyl)ethyl]phenyl}-3-quinolinecarbonitrile]
IC50 [1, 2]: 4100 nM | IC50 (c-Src): 25 nM

COc1ccc(/C=C/c2ccc3c(Nc4cc(OC)c(Cl)cc4Cl)c(C#N)cnc3c2)cc1 [Example 54, 4-(2,4-Dichloro-5-methoxyanilino)-7-[(E)-2-(4-methoxyphenyl)ethenyl]-3-quinolinecarbonitrile]
IC50 [1, 2]: > 10000 nM | IC50 (c-Src): 62 nM

COc1cc(Nc2c(C#N)cnc3cc(-c4cc(CN5CCOCC5)c(CN5CCOCC5)s4)c(OC)cc23)c(Cl)cc1Cl [Example 82, 7-[4,5-Bis(4-morpholinylmethyl)-2-thienyl]-4-(2,4-dichloro-5-methoxyanilino)-6-methoxy-3-quinolinecarbonitrile]
IC50 [1, 2]: 50 nM | IC50 (c-Src): 0.48 nM

CN(C)CC#Cc1ccc2c(Nc3ccc(Cl)cc3Cl)c(C#N)cnc2c1 [Example 15, 4-(2,4-Dichloroanilino)-7-[3-(dimethylamino)-1-propynyl]-3-quinolinecarbonitrile]
IC50 [1, 2]: > 10000 nM | IC50 (c-Src): 63 nM

COc1cc(Nc2c(C#N)cnc3cc(-c4cncn4CCN4CCOCC4)ccc23)c(Cl)cc1Cl [Example 64, 4-(2,4-Dichloro-5-methoxyanilino)-7-{1-[2-(4-morpholinyl)ethyl]-1H-imidazol-5-yl}-3-quinolinecarbonitrile]
IC50 [1, 2]: > 10000 nM | IC50 (c-Src): 950 nM

CCOC(=O)C1CCCCN1Cc1ccc(-c2ccc3c(Nc4cc(OC)c(Cl)cc4Cl)c(C#N)cnc3c2)cc1 (centres unmarked) [Example 145, ethyl 1-{4-[3-cyano-4-(2,4-dichloro-5-methoxyanilino)-7-quinolinyl]benzyl}-2-piperidinecarboxylate]
IC50 [1, 2]: > 10000 nM | inhibition at 0.01 µM (c-Src; at 10 nM): 17%

COc1cc(Nc2c(C#N)cnc3cc(-c4ccc(C=O)cc4)ccc23)c(Cl)cc1Cl [Example 83, 4-(2.4-Dichloro-5-methoxyanilino)-7-(4-formylphenyl)-3-quinolinecarbonitrile]
IC50 [1, 2]: 3900 nM | IC50 (c-Src): 42 nM

COc1cc(Nc2c(C#N)cnc3cc(-c4cc(CN5CCOCC5)c(CN5CCOCC5)s4)ccc23)c(Cl)cc1Cl [Example 20, 7-[4,5-Bis(4-morpholinylmethyl)-2-thienyl]-4-(2,4-dichloro-5-methoxyanilino)-3-quinolinecarbonitrile]
IC50 [1, 2]: 40 nM | IC50 [1, 3]: 30 nM | IC50 (c-Src): 1.1 nM and 0.8 nM

COc1cc(Nc2c(C#N)cnc3cc(-c4ccc(CN5CCOCC5)n4C)ccc23)c(Cl)cc1Cl [Example 70, 4-(2,4-Dichloro-5-methoxyanilino)-7-[1-methyl-5-(4-morpholinylmethyl)-1H-pyrrol-2-yl]-3-quinolinecarbonitrile]
IC50 [1, 2]: 6000 nM | IC50 (c-Src): 25 nM

COc1cc(Nc2c(C#N)cnc3cc(-c4ccc(CN5CCC(C(=O)O)CC5)cc4)ccc23)c(Cl)cc1Cl [Example 237, 1-{4-[3-cyano-4-(2,4-dichloro-5-methoxyanilino)-7-quinolinyl]benzyl}-4-piperidinecarboxylic acid]
IC50 [1, 2]: 490 nM | IC50 [1, 3]: 520 nM and 410 nM | IC50 (c-Src): 0.18 nM (2×) and 0.55 nM

COc1cc(Nc2c(C#N)cnc3cc(-c4ccc(CN5CCOCC5)cc4)c(OC)cc23)c(Cl)cc1Cl [Example 37, 4-(2,4-Dichloro-5-methoxyanilino)-6-methoxy-7-[4-(4-molpholinylmethyl)phenyl]-3-quinolinecarbonitrile]
IC50 [1, 2]: 1590 nM | IC50 [1, 3]: 1490 nM | IC50 (c-Src): 19 nM

COc1cc(Nc2c(C#N)cnc3cc(-c4ccc(N5CCOCC5)cc4)ccc23)c(Cl)cc1Cl [Example 67, 4-(2,4-Dichloro-5-methoxyanilino)-7-[4-(4-morpholinyl)phenyl]-3-quinolinecarbonitrile]
IC50 [1, 2]: 110 nM | IC50 (c-Src): 3 nM and 4.9 nM

COc1cc(Nc2c(C#N)cnc3cc(/C=C/C(=O)OC(C)(C)C)ccc23)c(Cl)cc1Cl [Example 142, tert-butyl (E)-3-[3-cyano-4-(2,4-dichloro-5-methoxyanilino)-7-quinolinyl]-2-propenoate]
IC50 [1, 2]: > 10000 nM | IC50 (c-Src): 31 nM

COc1cc(Nc2c(C#N)cnc3cc(-n4cccc4CN(C)C)ccc23)c(Cl)cc1Cl [Example 93]
IC50 [1, 3]: > 10000 nM | IC50 (c-Src): 610 nM and 680 nM
